Results: patent US20210198277A1, “AMINE-SUBSTITUTED ARYL OR HETEROARYL COMPOUNDS” (Epizyme, Inc., priority 2016, published 2021)

target: T1, EHMT2 (Homo sapiens, UniProt Q96KQ7); experiment: MDA-MB-231 H3K9me2 in-cell Western assay (EHMT2 ICW); type: cell-based; conditions: Table VI; read-out: EHMT2 ICW IC50
T1 construct: host or cells: MDA-MB-231
T1 sequence (Q96KQ7 1-1210): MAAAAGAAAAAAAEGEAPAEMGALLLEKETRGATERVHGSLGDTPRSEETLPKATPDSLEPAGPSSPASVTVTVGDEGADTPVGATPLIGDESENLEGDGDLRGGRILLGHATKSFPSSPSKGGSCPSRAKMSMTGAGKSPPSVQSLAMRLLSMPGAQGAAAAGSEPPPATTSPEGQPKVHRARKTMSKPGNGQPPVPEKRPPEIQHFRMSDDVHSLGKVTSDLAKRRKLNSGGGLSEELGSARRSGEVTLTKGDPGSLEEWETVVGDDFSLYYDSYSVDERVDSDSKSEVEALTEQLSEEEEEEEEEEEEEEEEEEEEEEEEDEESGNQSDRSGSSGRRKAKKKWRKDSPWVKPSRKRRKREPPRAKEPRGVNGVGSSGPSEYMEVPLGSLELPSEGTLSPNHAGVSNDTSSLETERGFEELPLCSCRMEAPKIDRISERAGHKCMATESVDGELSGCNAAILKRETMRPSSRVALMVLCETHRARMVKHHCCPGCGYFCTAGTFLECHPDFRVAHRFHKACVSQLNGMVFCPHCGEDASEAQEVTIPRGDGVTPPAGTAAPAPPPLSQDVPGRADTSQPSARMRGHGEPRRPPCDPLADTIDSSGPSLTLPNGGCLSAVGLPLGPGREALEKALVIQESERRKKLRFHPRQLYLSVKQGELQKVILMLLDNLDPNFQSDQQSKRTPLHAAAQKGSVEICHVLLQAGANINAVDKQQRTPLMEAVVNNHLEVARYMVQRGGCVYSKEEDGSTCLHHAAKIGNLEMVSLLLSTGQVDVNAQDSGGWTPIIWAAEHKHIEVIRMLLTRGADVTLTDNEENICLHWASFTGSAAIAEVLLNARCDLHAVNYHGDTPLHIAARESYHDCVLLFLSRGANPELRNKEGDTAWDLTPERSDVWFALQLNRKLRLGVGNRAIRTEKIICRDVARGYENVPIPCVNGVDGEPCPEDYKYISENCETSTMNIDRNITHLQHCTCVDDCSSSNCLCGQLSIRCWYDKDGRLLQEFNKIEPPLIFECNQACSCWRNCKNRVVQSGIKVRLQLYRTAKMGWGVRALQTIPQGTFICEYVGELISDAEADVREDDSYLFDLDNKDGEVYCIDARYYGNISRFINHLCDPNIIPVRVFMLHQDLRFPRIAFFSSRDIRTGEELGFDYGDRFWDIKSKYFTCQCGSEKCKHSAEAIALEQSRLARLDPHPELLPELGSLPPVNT
Outline: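 Infrared read-out at 800 and 700 nm (H3K9me2 antibody vs DRAQ5 DNA stain) of fixed MDA-MB-231 cells after 48 h compound treatment at 37 °C. Well ratios were converted to percent inhibition, and IC50 was obtained by variable-slope nonlinear regression on triplicates.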

| IC50 [µM] | Structure (SMILES) |
| --- | --- |
| > 10 | COc1cc(NC2CCNCC2)ncc1OCC1CCN(C)C1 (centres unmarked) [Compound 604] |
| > 10 | COc1nc(NC2CCNCC2)ncc1OCC1CCN(C)C1 (centres unmarked) [Compound 605] |
| 1 to 10 | CCN1CC(COc2cc(Nc3nc(C)cc4[nH]ncc34)ncc2OC)C1 [Compound 607] |
| > 10 | CNc1cc(C)nc(Nc2cc(OCCCN3CCCC3)n3cnnc3c2)n1 [Compound 628] |
| > 10 | COc1cc(NC2CCNCC2)ncc1OCC1CCNC1 (centres unmarked) [Compound 629] |
| > 10 | CCc1nc(NC2CCNCC2)ncc1OCC1CCN(C)C1 (centres unmarked) [Compound 630] |
| > 10 | CCc1nc(NC2CCNCC2)ncc1OCC1CN(C(C)C)C1 [Compound 631] |
| > 10 | CN1CCC(Nc2ncc(OCC3CCN(C)C3)cn2)CC1 (centres unmarked) [Compound 632] |
| > 10 | CN1CCC(COc2cnc(N(C)C3CCNCC3)nc2)C1 (centres unmarked) [Compound 633] |
| > 10 | COc1cc(N(C)C2CCNCC2)ncc1OCC1CCN(C)C1 (centres unmarked) [Compound 634] |
| > 10 | COc1cc(N(C)C2CCNCC2)ncc1OCC1CCN(C)C1 (centres unmarked) [Compound 635] |
| > 10 | CC(C)N1CC(COc2cnc(NC3CCNCC3)nc2)C1 [Compound 636] |
| > 10 | CC(C)N1CC[C@@H](COc2cnc(N(C)C3CCNCC3)nc2)C1 [Compound 637] |
| > 10 | COc1cnc(Nc2cccn3cncc23)cc1OCCCN1CCCC1 [Compound 638] |
| > 10 | COc1cnc(NC(=O)/C=C/CN(C)C)cc1OCCCN1CCCC1 [Compound 640] |
| 0.1 to 1 | CNc1cc(C)nc(Nc2cnc(OC)c(OC[C@@H]3CCNC3)c2)n1 [Compound 641] |
| > 10 | COc1cc(Nc2ccc3[nH]ncc3c2)ncc1OCCCN1CCCC1 [Compound 643] |
| 0.1 to 1 | CNc1cc(C)nc(Nc2ccc(OC)c(CNCCN3CCCC3)c2)n1 [Compound 644, 2-N-[4-methoxy-3-([[2-(pyrrolidin-1-yl)ethyl]amino]methyl)phenyl]-4-N,6-dimethylpyrimidine-2,4-diamine] |
| 1 to 10 | CNc1cc(C)nc(Nc2ccc(OC)c(CN(C)CCN3CCCC3)c2)n1 [Compound 645] |
| 1 to 10 | CCN1CCC(NCc2cc(Nc3nc(C)cc(NC)n3)ccc2OC)C1 (centres unmarked) [Compound 646] |
| > 10 | CCN1CC(NCc2cc(Nc3nc(C)cc(NC)n3)ccc2OC)C1 [Compound 647] |
| > 10 | COc1cc(Nc2ccc3[nH]ncc3n2)ncc1OCCCN1CCCC1 [Compound 648] |

| IC50 [µM] | Structure (SMILES) |
| --- | --- |
| 0.1 to 1 | CCN1CC([C@H](C)Oc2cc(Nc3nc(C)cc(NC)n3)ccc2OC)C1 [Compound 649] |
| > 10 | CCN1CC(N(C)Cc2cc(Nc3nc(C)cc(NC)n3)ccc2OC)C1 [Compound 650] |
| > 10 | CCN1CCC(N(C)Cc2cc(Nc3nc(C)cc(NC)n3)ccc2OC)C1 (centres unmarked) [Compound 651] |
| 1 to 10 | COc1cc2c(C3CCN(C)CC3)c(F)c(C)nc2cc1OCCCN1CCCC1 [Compound 652] |
| > 10 | COc1cnc(Nc2cccc3nccn23)nc1OCCCN1CCCC1 [Compound 654] |
| > 10 | COc1cnc(Nc2cccc3[nH]ncc23)nc1OCCCN1CCCC1 [Compound 655] |
| > 10 | COc1cnc(Nc2cccc3nncn23)nc1OCCCN1CCCC1 [Compound 656] |
| > 10 | COc1cc2c(C3CCN(C)CC3)nc(C)nc2cc1OCCCN1CCCC1 [Compound 658] |
| > 10 | COc1cc2c(C3CCN(C(C)C)CC3)nc(C)nc2cc1OCCCN1CCCC1 [Compound 659] |
| 1 to 10 | CCN1CC(COc2cc3nc(C)cc(C4CCN(C)CC4)c3cc2OC)C1 [Compound 660] |
| 1 to 10 | CCN1CC(COc2cc3nc(C)cc(C4CCN(C(C)C)CC4)c3cc2OC)C1 [Compound 661] |
| 0.1 to 1 | CCN1CC[C@@H](COc2cc3nc(C)cc(C4CCN(C)CC4)c3cc2OC)C1 [Compound 662] |
| 0.1 to 1 | CCN1CC[C@@H](COc2cc3nc(C)cc(C4CCN(C(C)C)CC4)c3cc2OC)C1 [Compound 663] |
| > 10 | CCN1CC(COc2cc3nc(C)nc(C4CCN(C)CC4)c3cc2OC)C1 [Compound 664] |
| > 10 | CCN1CC(COc2cc3nc(C)nc(C4CCN(C(C)C)CC4)c3cc2OC)C1 [Compound 665] |
| 0.1 to 1 | CCN1CC[C@@H](COc2cc(Nc3nc(C)cc(NCC4CCOCC4)n3)ccc2OC)C1 [Compound 667] |
| 0.1 to 1 | COc1cc2c(C3CCOCC3)cc(C)nc2cc1OCCCN1CCCC1 [Compound 668] |
| > 10 | COc1cc2c(C3CCN(C(C)C)CC3)cc(C)nc2nc1OCCCN1CCCC1 [Compound 670] |
| 0.1 to 1 | CCc1cc(NC)nc(Nc2ccc(OC)c(OC[C@@H]3CCN(CC)C3)c2)n1 [Compound 671] |
| 0.1 to 1 | CCN1CC[C@@H](COc2cc(Nc3nc(NC)cc(C(C)C)n3)ccc2OC)C1 [Compound 672] |
| > 10 | CCN1CC[C@@H](COc2cc3nc(C)nc(C4CCN(C)CC4)c3cc2OC)C1 [Compound 673] |
| > 10 | CCN1CC[C@@H](COc2cc3nc(C)nc(C4CCN(C(C)C)CC4)c3cc2OC)C1 [Compound 674] |

| IC50 [µM] | Structure (SMILES) |
| --- | --- |
| > 10 | CNc1cc(C)nc(Nc2cnc(OC)c(O)c2)n1 [Compound 676] |
| > 10 | COc1cc2c(C3CCN(C)CC3)cc(-c3cn[nH]c3)nc2cc1OCCCN1CCCC1 [Compound 677] |
| 1 to 10 | COc1cc2c(C3CCN(C)CC3)cc(-c3cc[nH]n3)nc2cc1OCCCN1CCCC1 [Compound 678] |
| 1 to 10 | COc1cc2c(C3CCOCC3)cc(-c3cn[nH]c3)nc2cc1OCCCN1CCCC1 [Compound 679] |
| > 10 | CNCCN(C)Cc1cc(Nc2nc(C)cc(NC)n2)ccc1OC [Compound 680] |
| 1 to 10 | COc1cc2c(C3CCN(C)CC3)nc(-c3cn[nH]c3)nc2cc1OCCCN1CCCC1 [Compound 681] |
| 0.1 to 1 | COCCN1CCC(c2cc(C)nc3cc(OCCCN4CCCC4)c(OC)cc23)CC1 [Compound 682] |
| > 10 | COc1cnc(Nc2ccc3[nH]nnc3c2)cc1OCCCN1CCCC1 [Compound 686] |
| 1 to 10 | CCN1CC([C@@H](C)Oc2cc(Nc3nc(C)cc(NC)n3)ccc2OC)C1 [Compound 687] |
| < 0.1 | CNc1cc(C)c2cc(OC)c(OCCCN3CCCC3)cc2n1 [Compound 736] |
| > 10 | CNc1nc(C)c2cc(OC)c(OCCCN3CCCC3)cc2n1 [Compound 737] |
| 1 to 10 | COc1cc2c(C)cc(N3CCNCC3)nc2cc1OCCCN1CCCC1 [Compound 738] |
| > 10 | COc1cc2c(C)nc(N3CCNCC3)nc2cc1OCCCN1CCCC1 [Compound 739] |
| 1 to 10 | CNc1nc(C2CCN(CCOC)CC2)c2cc(OC)c(OCCCN3CCCC3)cc2n1 [Compound 740] |
| 1 to 10 | COc1cc2c(C3CCN(C)CC3)cc(C)nc2cc1OCCCN1CC[C@H](F)C1 [Compound 741] |
| 1 to 10 | COc1cc2c(C3CCN(C)CC3)cc(C)nc2cc1OCCCN1CC[C@@H](F)C1 [Compound 742] |
| > 10 | COc1cc2c(C3CCCN(C)C3)nc(C)nc2cc1OCCCN1CCCC1 (centres unmarked) [Compound 743] |
| > 10 | COc1cc2c(C3CCN(C)C3)nc(C)nc2cc1OCCCN1CCCC1 (centres unmarked) [Compound 745] |
| > 10 | CNc1nc(C2CCCN(C)C2)c2cc(OC)c(OCCCN3CCCC3)cc2n1 (centres unmarked) [Compound 746] |
| > 10 | CNc1ccnc(Nc2ccc(OC)c(CNC[C@@H]3CCCN3)c2)n1 [Compound 1019] |
| > 10 | CNc1ccnc(Nc2ccc(OC)c(CNC[C@H]3CCCN3)c2)n1 [Compound 1020] |
